Legend:
Assay in all cases: Proqinase Kinase profiling
Format in all cases: biochemical
Conditions in all cases: read-out: % inhibition at 100nM
[1] = molecular target: T1, ACVR2A (Homo sapiens, UniProt P27037)
T1 construct: T7 phage fusion (or DNA tag for qPCR if made in HEK-293); purchased DiscoverX; host or cells: E. coli (T7 phage) or HEK-293

[2] = molecular target: T2, ACVR1B (Homo sapiens, UniProt P36896)
T2 construct: purchased DiscoverX

[3] = molecular target: T3, STK24 (Homo sapiens, UniProt Q9Y6E0)
T3 construct: purchased DiscoverX

[4] = molecular target: T4, CDK1_cyclinB (Homo sapiens, UniProt P06493)
T4 construct: purchased DiscoverX

[5] = molecular target: T5, PTK2B (Homo sapiens, UniProt Q14289)
T5 construct: purchased DiscoverX

[6] = molecular target: T6, MAP2K6 (Homo sapiens, UniProt P52564)
T6 construct: purchased DiscoverX

[7] = molecular target: T7, PAK7 (Homo sapiens, UniProt Q9P286)
T7 construct: purchased DiscoverX

[8] = molecular target: T8, CSNK2A2 (Homo sapiens, UniProt P19784)
T8 construct: purchased DiscoverX

[9] = molecular target: T9, CLK4 (Homo sapiens, UniProt Q9HAZ1)
T9 construct: purchased DiscoverX

[10] = molecular target: T10, NEK2 (Homo sapiens, UniProt P51955)
T10 construct: purchased DiscoverX

[11] = molecular target: T11, MAPK3 (Homo sapiens, UniProt P27361)
T11 construct: purchased DiscoverX

[12] = molecular target: T12, DAPK1 (Homo sapiens, UniProt P53355)
T12 construct: purchased DiscoverX

[13] = molecular target: T13, CSF1R (Homo sapiens, UniProt P07333)
T13 construct: purchased DiscoverX

[14] = molecular target: T14, MAPK1 (Homo sapiens, UniProt P28482)
T14 construct: purchased DiscoverX

[15] = molecular target: T15, SIK2 (Homo sapiens, UniProt Q9H0K1)
T15 construct: purchased DiscoverX

[16] = molecular target: T16, BRAF_V600E (Homo sapiens, UniProt P15056, V600E)
T16 construct: purchased DiscoverX

[17] = molecular target: T17, BTK (Homo sapiens, UniProt Q06187)
T17 construct: purchased DiscoverX

[18] = molecular target: T18, MAP3K10 (Homo sapiens, UniProt Q02779)
T18 construct: purchased DiscoverX

[19] = molecular target: T19, IKBKB (Homo sapiens, UniProt O14920)
T19 construct: purchased DiscoverX

[20] = molecular target: T20, PIM1 (Homo sapiens, UniProt P11309)
T20 construct: purchased DiscoverX

[21] = molecular target: T21, PHKG1 (Homo sapiens, UniProt Q16816)
T21 construct: purchased DiscoverX

[22] = molecular target: T22, WNK3 (Homo sapiens, UniProt Q9BYP7)
T22 construct: purchased DiscoverX

[23] = molecular target: T23, KIT (Homo sapiens, UniProt P10721)
T23 construct: purchased DiscoverX

[24] = molecular target: T24, MET_F1200I (Homo sapiens, UniProt P08581, F1200I)
T24 construct: purchased DiscoverX

[25] = molecular target: T25, DYRK1A (Homo sapiens, UniProt Q13627)
T25 construct: purchased DiscoverX

[26] = molecular target: T26, EGFR_L861Q (Homo sapiens, UniProt P00533, L861Q)
T26 construct: purchased DiscoverX

[27] = molecular target: T27, FGFR2 (Homo sapiens, UniProt P21802)
T27 construct: purchased DiscoverX

[28] = molecular target: T28, PRKCB1_II (Homo sapiens, UniProt P05771)
T28 construct: purchased DiscoverX

[29] = molecular target: T29, CDK9_cyclinK (Homo sapiens, UniProt P50750)
T29 construct: purchased DiscoverX

[30] = molecular target: T30, TEK (Homo sapiens, UniProt Q02763)
T30 construct: purchased DiscoverX

[31] = molecular target: T31, PDK1 (Homo sapiens, UniProt O15530)
T31 construct: purchased DiscoverX

[32] = molecular target: T32, CAMKK1 (Homo sapiens, UniProt Q8N5S9)
T32 construct: purchased DiscoverX

[33] = molecular target: T33, PLK3 (Homo sapiens, UniProt Q9H4B4)
T33 construct: purchased DiscoverX

[34] = molecular target: T34, RET_V804L (Homo sapiens, UniProt P07949, V804L)
T34 construct: purchased DiscoverX

[35] = molecular target: T35, CDK4_cyclinD1 (Homo sapiens, UniProt P11802)
T35 construct: purchased DiscoverX

[36] = molecular target: T36, CAMK2D (Homo sapiens, UniProt Q13557)
T36 construct: purchased DiscoverX

[37] = molecular target: T37, ERBB4 (Homo sapiens, UniProt Q15303)
T37 construct: purchased DiscoverX

[38] = molecular target: T38, AURKC (Homo sapiens, UniProt Q9UQB9)
T38 construct: purchased DiscoverX

[39] = molecular target: T39, PRKAA1 (Homo sapiens, UniProt Q13131)
T39 construct: purchased DiscoverX

[40] = molecular target: T40, PAK3 (Homo sapiens, UniProt O75914)
T40 construct: purchased DiscoverX

[41] = molecular target: T41, MST1R (Homo sapiens, UniProt Q04912)
T41 construct: purchased DiscoverX

[42] = molecular target: T42, FGFR4 (Homo sapiens, UniProt P22455)
T42 construct: purchased DiscoverX

[43] = molecular target: T43, ERBB2 (Homo sapiens, UniProt P04626)
T43 construct: purchased DiscoverX

T32 sequence (Q8N5S9 whole entry): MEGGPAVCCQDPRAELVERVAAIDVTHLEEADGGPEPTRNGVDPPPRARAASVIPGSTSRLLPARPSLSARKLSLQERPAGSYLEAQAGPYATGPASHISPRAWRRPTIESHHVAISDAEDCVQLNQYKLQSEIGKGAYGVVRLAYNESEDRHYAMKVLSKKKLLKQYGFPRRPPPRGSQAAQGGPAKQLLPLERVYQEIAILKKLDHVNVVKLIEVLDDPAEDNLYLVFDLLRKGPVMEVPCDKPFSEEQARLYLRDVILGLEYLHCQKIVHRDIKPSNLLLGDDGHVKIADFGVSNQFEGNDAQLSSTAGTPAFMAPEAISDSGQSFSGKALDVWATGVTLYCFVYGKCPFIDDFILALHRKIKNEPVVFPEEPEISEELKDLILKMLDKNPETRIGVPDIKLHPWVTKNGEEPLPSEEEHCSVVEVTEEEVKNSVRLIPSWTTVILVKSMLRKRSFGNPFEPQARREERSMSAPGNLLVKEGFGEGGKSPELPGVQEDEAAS
T28 sequence (P05771 1-673 isoform P05771-2): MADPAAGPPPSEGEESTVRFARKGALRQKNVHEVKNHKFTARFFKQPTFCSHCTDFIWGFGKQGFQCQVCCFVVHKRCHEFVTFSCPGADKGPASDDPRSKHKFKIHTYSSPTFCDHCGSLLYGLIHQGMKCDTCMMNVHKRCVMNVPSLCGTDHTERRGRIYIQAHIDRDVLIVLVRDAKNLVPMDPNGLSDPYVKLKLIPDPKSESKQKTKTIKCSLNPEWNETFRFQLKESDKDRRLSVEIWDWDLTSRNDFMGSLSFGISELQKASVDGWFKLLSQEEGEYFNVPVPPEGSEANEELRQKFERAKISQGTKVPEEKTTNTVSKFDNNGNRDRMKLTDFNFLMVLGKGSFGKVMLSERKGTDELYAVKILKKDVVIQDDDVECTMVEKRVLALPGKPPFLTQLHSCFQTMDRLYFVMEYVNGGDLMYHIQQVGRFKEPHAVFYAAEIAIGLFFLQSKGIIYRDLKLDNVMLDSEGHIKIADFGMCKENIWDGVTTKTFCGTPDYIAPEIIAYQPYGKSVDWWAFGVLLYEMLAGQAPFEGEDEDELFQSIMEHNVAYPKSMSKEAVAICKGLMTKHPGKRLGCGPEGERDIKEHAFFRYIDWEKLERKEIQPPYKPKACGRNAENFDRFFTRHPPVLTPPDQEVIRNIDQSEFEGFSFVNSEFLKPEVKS
T10 sequence (P51955 whole entry): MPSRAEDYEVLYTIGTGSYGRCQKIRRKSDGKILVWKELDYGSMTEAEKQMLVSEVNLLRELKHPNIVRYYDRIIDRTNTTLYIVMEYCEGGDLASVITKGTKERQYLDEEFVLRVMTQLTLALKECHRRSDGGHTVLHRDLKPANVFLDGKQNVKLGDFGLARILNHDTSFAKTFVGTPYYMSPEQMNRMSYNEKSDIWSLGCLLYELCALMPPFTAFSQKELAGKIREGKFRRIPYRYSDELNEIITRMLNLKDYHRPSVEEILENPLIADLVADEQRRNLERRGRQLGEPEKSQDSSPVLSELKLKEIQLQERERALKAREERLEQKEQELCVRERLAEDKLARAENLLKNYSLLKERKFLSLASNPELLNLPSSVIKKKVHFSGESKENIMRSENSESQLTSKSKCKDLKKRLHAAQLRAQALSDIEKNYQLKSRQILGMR
T42 sequence (P22455 22-802): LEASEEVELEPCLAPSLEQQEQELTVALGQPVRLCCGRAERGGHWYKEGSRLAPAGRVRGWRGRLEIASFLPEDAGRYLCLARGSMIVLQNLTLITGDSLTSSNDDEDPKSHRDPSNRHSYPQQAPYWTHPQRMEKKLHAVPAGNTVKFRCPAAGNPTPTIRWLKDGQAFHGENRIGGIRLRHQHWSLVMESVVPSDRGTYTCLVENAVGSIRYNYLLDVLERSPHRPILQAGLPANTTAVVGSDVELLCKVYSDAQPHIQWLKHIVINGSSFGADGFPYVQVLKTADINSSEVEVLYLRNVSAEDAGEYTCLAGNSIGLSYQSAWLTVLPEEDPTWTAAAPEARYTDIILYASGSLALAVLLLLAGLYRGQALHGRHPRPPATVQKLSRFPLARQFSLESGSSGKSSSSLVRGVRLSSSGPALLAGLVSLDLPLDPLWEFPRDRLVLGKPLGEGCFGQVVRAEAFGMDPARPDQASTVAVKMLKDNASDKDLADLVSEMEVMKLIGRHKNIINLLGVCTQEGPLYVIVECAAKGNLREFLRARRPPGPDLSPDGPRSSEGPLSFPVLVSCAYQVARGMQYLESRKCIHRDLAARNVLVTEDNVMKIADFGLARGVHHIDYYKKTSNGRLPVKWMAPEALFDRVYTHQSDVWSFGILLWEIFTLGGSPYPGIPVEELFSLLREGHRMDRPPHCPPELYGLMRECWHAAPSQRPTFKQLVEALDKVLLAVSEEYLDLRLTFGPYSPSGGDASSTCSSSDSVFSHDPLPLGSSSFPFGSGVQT
T6 sequence (P52564 whole entry): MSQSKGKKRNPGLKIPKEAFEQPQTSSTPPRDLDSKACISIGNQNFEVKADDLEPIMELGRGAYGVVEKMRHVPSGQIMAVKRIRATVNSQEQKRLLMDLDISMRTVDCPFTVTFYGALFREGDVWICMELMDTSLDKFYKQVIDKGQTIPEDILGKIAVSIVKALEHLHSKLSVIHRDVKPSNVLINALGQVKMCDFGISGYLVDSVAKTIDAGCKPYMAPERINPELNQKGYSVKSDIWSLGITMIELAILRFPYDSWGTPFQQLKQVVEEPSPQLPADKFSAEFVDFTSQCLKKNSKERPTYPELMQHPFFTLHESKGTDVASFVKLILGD
T26 sequence (P00533 25-1210 L861Q): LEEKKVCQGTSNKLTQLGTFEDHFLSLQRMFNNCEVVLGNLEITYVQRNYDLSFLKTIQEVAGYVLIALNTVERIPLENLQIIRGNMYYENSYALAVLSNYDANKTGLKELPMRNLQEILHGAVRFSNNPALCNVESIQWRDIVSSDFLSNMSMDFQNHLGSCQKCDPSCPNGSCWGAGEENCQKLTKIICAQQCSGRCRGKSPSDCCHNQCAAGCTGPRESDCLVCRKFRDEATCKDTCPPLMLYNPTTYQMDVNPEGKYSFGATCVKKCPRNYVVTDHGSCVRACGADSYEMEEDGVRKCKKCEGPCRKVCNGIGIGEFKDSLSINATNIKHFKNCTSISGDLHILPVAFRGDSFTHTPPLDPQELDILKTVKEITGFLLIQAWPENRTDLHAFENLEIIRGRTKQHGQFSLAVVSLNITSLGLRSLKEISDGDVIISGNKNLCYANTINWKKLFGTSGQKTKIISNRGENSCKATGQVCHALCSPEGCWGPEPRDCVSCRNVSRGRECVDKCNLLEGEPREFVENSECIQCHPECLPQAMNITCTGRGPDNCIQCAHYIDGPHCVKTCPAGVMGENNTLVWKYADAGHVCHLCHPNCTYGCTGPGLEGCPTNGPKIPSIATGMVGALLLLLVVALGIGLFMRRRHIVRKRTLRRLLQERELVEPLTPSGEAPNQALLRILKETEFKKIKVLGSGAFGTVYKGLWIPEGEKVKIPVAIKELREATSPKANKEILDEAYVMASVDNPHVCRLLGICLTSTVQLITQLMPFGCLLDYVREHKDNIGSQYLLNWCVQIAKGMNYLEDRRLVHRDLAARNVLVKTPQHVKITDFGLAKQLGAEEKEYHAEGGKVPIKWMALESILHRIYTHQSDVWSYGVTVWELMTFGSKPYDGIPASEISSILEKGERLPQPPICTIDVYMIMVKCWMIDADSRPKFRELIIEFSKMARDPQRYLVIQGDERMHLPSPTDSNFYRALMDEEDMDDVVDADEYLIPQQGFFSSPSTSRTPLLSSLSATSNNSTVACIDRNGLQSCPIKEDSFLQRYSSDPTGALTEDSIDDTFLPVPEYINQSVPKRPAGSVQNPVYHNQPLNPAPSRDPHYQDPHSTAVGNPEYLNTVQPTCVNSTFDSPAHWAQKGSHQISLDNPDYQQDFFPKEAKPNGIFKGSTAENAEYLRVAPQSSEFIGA
T5 sequence (Q14289 whole entry): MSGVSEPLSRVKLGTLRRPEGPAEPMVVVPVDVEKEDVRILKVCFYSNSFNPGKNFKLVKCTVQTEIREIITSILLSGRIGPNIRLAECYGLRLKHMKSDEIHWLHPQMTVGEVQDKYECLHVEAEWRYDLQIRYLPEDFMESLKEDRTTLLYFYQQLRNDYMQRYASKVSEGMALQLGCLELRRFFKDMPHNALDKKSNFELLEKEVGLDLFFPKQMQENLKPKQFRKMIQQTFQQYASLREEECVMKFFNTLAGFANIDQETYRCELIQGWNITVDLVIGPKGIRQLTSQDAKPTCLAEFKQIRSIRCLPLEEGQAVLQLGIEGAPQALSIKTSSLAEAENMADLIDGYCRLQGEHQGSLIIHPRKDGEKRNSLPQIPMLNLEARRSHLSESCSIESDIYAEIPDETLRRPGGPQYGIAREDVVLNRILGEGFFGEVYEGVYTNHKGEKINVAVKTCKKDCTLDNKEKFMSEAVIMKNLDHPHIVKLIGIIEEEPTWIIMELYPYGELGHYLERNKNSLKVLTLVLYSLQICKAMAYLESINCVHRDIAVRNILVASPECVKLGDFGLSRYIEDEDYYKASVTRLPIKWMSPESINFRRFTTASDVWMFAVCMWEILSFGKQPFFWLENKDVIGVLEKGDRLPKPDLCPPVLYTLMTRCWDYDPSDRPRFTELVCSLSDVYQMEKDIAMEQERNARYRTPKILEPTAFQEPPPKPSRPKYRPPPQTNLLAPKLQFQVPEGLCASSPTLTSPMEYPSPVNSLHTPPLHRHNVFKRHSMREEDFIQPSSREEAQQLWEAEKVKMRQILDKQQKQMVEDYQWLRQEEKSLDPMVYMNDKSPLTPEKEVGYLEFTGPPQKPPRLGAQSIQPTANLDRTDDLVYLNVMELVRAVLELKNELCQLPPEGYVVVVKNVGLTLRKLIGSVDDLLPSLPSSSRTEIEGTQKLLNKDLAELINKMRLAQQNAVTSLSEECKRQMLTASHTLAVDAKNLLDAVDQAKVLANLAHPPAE

`Clc1cc2cc(c1)-c1cnn3ccc(nc13)NCCOCCO2` [OD36] was tested, and the inhibition at 0.1 µM [1] was 15%, the inhibition at 0.1 µM [2] was 22% and the inhibition at 0.1 µM [3] was 8%. The inhibition at 0.1 µM [4] was 9%, the inhibition at 0.1 µM [5] was -2% and the inhibition at 0.1 µM [6] was 1%. For the same molecule, the inhibition at 0.1 µM [7] was 8%, the inhibition at 0.1 µM [8] was 8% and the inhibition at 0.1 µM [9] was 22%. It also gave an inhibition at 0.1 µM [10] of 0%, an inhibition at 0.1 µM [11] of 12% and an inhibition at 0.1 µM [12] of 12%. The inhibition at 0.1 µM [13] was 16%, the inhibition at 0.1 µM [14] was 10% and the inhibition at 0.1 µM [15] was 94%. The inhibition at 0.1 µM [16] was 10%, the inhibition at 0.1 µM [17] was 3% and the inhibition at 0.1 µM [18] was 13%. The inhibition at 0.1 µM [19] was 1%, the inhibition at 0.1 µM [20] was 29% and the inhibition at 0.1 µM [21] was 8%. For the same molecule, the inhibition at 0.1 µM [22] was 5%, the inhibition at 0.1 µM [23] was 33% and the inhibition at 0.1 µM [24] was 4%. It also gave an inhibition at 0.1 µM [25] of 7%, an inhibition at 0.1 µM [26] of 15% and an inhibition at 0.1 µM [27] of 8%. The inhibition at 0.1 µM [28] was -5%, the inhibition at 0.1 µM [29] was 16% and the inhibition at 0.1 µM [30] was 6%. The inhibition at 0.1 µM [31] was 4%, the inhibition at 0.1 µM [32] was 20% and the inhibition at 0.1 µM [33] was -4%. The inhibition at 0.1 µM [34] was -10%, the inhibition at 0.1 µM [35] was 8% and the inhibition at 0.1 µM [36] was 6%. It also gave an inhibition at 0.1 µM [37] of 12%, an inhibition at 0.1 µM [38] of 13% and an inhibition at 0.1 µM [39] of 21%. The inhibition at 0.1 µM [40] was 1%, the inhibition at 0.1 µM [41] was -3% and the inhibition at 0.1 µM [42] was 9%. It also gave an inhibition at 0.1 µM [43] of 0%.
`Cc1cc2cc(c1)-c1cnn3ccc(nc13)NCCNC(=O)CCN(C)C2` [OD52] gave an inhibition at 0.1 µM [1] of 14%, an inhibition at 0.1 µM [2] of 13% and an inhibition at 0.1 µM [3] of 12%. The inhibition at 0.1 µM [4] was 6%, the inhibition at 0.1 µM [5] was 6% and the inhibition at 0.1 µM [6] was 6%. For the same molecule, the inhibition at 0.1 µM [7] was 5%, the inhibition at 0.1 µM [8] was 5% and the inhibition at 0.1 µM [9] was 4%. The inhibition at 0.1 µM [10] was 3%, the inhibition at 0.1 µM [11] was 1% and the inhibition at 0.1 µM [12] was 0%. The inhibition at 0.1 µM [13] was -1%, the inhibition at 0.1 µM [14] was -1% and the inhibition at 0.1 µM [15] was -1%. It also gave an inhibition at 0.1 µM [16] of -1%, an inhibition at 0.1 µM [17] of -2% and an inhibition at 0.1 µM [18] of -3%. For the same molecule, the inhibition at 0.1 µM [19] was -3%, the inhibition at 0.1 µM [20] was -3% and the inhibition at 0.1 µM [21] was -4%. For the same molecule, the inhibition at 0.1 µM [22] was -4%, the inhibition at 0.1 µM [23] was -4% and the inhibition at 0.1 µM [24] was -4%. It also gave an inhibition at 0.1 µM [25] of -4%, an inhibition at 0.1 µM [26] of -4% and an inhibition at 0.1 µM [27] of -6%. The inhibition at 0.1 µM [28] was -7%, the inhibition at 0.1 µM [29] was -7% and the inhibition at 0.1 µM [30] was -7%. For the same molecule, the inhibition at 0.1 µM [31] was -7%, the inhibition at 0.1 µM [32] was -8% and the inhibition at 0.1 µM [33] was -8%. The inhibition at 0.1 µM [34] was -8%, the inhibition at 0.1 µM [35] was -9% and the inhibition at 0.1 µM [36] was -9%. It also gave an inhibition at 0.1 µM [37] of -10%, an inhibition at 0.1 µM [38] of -11% and an inhibition at 0.1 µM [39] of -11%. The inhibition at 0.1 µM [40] was -15%, the inhibition at 0.1 µM [41] was -24% and the inhibition at 0.1 µM [42] was -28%. It also gave an inhibition at 0.1 µM [43] of -44%.

From paper PMC6874179, “Development of Macrocycle Kinase Inhibitors for ALK2 Using Fibrodysplasia Ossificans Progressiva‐Derived Endothelial Cells” (JBMR Plus, 2019)
